From patent US10478501B2, “Method of treating disorders using a pharmaceutical composition of oligopeptides” (Merck Patent GmbH, priority 2011, dated 2019)

What was measured:
[1] = test system: 4T1 mouse breast tumour cells; experiment: Study 003: 4T1 orthotopic model (lung and liver metastases); format: in vivo, female BALB/c mice
Procedure: 4T1 mouse breast tumour cells were orthotopically inoculated into the third mammary fat pad of female BALB/c mice. The mice were randomised into groups when the tumors reached a size of approximately 40 mm^3.
The mice in each group received treatment with either Vehicle Control (Placebo), EMD 121974 (75, 150 or 300 mg/kg as Composition according to Example 18) or Taxol® (8 mg/kg). The Vehicle Control and EMD 121974 were administered by subcutaneous injection, daily; Taxol® was administered by intravenous injection three times per week.
Body weight and tumour volume measurements were made for all mice three times per week. The lungs and liver were excised from all mice at termination. For lung metastasis assessment surface metastases of the lungs were counted and for liver metastasis assessment H&E-stained sections of liver were assessed for the presence and number of micro-metastases.

[2] = test system: MDA-MB-231 breast cancer bone metastases; experiment: Experimental breast cancer bone metastases in nude rats: DCE-MRI parameters amplitude A and kep; format: in vivo, nude rats (RNU strain)
Procedure: Nude rats (RNU strain) are obtained from Harlan-Winkelmann GmbH (Borchen, Germany) at the age of six weeks and housed in a specific pathogen-free environment in a mini barrier system of the central animal facility. Animals are kept under controlled conditions (21±2° C. room temperature, 60% humidity, 12 h light-dark rhythm) and offered autoclaved food and water ad libitum. Sub-confluent MDAMB-231 cells are harvested using 0.05% Trypsin-EDTA (Gibco®; Invitrogen, Karlsruhe, Germany) counted on a Neubauer's chamber and resuspended in RPMI-1640 to a final concentration of 10^5 cells in 200 μl. Rats are anesthetized using a mixture of nitrous oxide (1 l/min), oxygen (0.5 l/min) and isoflurane (1.5 vol. %). Arterial branches of the right hind leg are dissected and 10^5 cells injected into the superficial epigastric artery as described previously.^28 Bone metastases established and are observed exclusively in the femur, tibia and fibula of the right hind leg. 30 days after cancer cell transplantation, rats (n=24) are randomly divided into two groups, one group receiving the cyclic RGD-peptide inhibitor of αvβ3/αvβ5 integrins (cilengitide, EMD 121974^14, 17, 29; Merck, Darmstadt, Germany) intraperitoneally five times per week (75 mg/kg; n=12 rats) and the other, sham-treated group, serving as a control (n=12 rats). The observation period of all animals is 55 days and no rat in the study dies ahead of schedule.
After the inoculation of cancer cells each rat is imaged at days 30, 35, 45 and 55 using (i) a flat-panel equipped volumetric computed tomograph (Volume CT, Siemens, Germany) and (ii) a 1.5T clinical magnetic resonance scanner (Symphony, Siemens, Erlangen, Germany) equipped with a home-built receive-transmit coil (cylindrical volume resonator with an inner diameter of 83 mm and a usable length of 120 mm). Prior to in vivo imaging with VCT and MRI, rats are anesthetized with nitrous oxide, oxygen and isoflurane as described above.
T2-weighted imaging is performed using a turbo spin echo sequence (orientation axial, TR 3240 ms, TE 81 ms, matrix 152×256, FOV 90×53.4 mm^2, slice thickness 1.5 mm, 3 averages, scan time 3 min 40 s). For dynamic contrast-enhanced MRI, a saturation recovery turbo flash sequence through the largest diameter of the tumor (orientation axial, TR 373 ms, TE 1.86 ms, matrix 192×144, FOV 130×97.5 mm, slice thickness 5 mm, measurements 512, averages 1, scan time 6 min 55 s) is used. After 20 s baseline, 0.1 mmol/kg Gd-DTPA (Magnevist; Bayer Schering Pharma, Berlin, Germany) is intravenously infused for a time period of 10 s.
Unenhanced VCT images and MRI-acquired T2-weighted images are analyzed using the Medical Imaging Interaction Toolkit (MITK, Heidelberg, Germany) to determine volumes of osteolytic lesions and soft tissue components, respectively. DCE-MRI acquired data is analyzed using the Dynalab workstation (Mevis Research, Bremen, Germany) according to the two-compartment model of Brix to determine the parameters amplitude A and exchange rate constant kep, as described.^23, 30 Briefly, the injected contrast media is distributed in both compartments (intravascular space and extravascular, interstitial space). The accumulation of contrast agent in these compartments over time is characterized by the amplitude A (associated with blood volume), whereas the exchange of contrast agent between the intravascular space and the interstitial space is characterized by the exchange rate constant kep (associated with vessel permeability). For determination of the respective values of the amplitude A and kep of bone metastases in our study, a region of interest is placed around the soft tissue component on color maps for A and kep, respectively, using the Dynalab workstation (Mevis Research, Bremen, Germany). […]

[3] = test system: H1299; experiment: Cellular radiosensitivity by clonogenic cell survival assay, H1299; format: cell-based, human; conditions: combined with γ-radiation, given 1 h before and continued 23 h after irradiation
Procedure: (§1) Methods: Three non-small cell lung carcinoma lines (NSCLCs) (H460, A549 and H1299) and three head and neck squamous cell carcinoma lines (HNSCCs) (FaDu, SCC-15 and SCC-25) cell lines were used for in vitro experiments. Of these, H460 and FaDu were used for in vivo testing when grown as xenografts in nude mice. The effects of cilengitide (1-50 μg/ml, 24 h) on in vitro cell viability was determined by MTS assay and on cellular radiosensitivity by clonogenic cell survival assay after exposing the cells to graded single doses of γ-radiation with or without cilengitide (given 1 h before and continued for 23 h after irradiation). In vivo effect of cilengitide on radioresponse of xenografts was assessed by tumor growth delay. When tumor xenografts reached 7 mm in diameter cilengitide treatment (30 or 60 mg/d/5 or 10 days) was initiated followed by a single dose of 15 Gy local radiation (using ^137Cs γ-ray source), when the tumors reached 8 mm.

[4] = test system: SCC-15; experiment: In vitro cell viability by MTS assay, SCC-15; format: cell-based, human; conditions: 5 μg/ml, 24 h
Procedure: as §1

[5] = test system: U251 MG; experiment: U251 MG xenograft orthotopic brain model in nude rat, cilengitide with radiation; format: in vivo; conditions: for Tumor volume (mm^3) median (histologic, Alu ISH): median (range)
Procedure: Synergistic Effect of the Combination of Cilengitide with Radiation in U251 MG Xenograft Orthotopic Brain Model in Nude Rat Caspase 3 Staining (Shown in FIG. 17) [table] RT is radiotherapy. Single dose. EMD is cilengitide. Single dose.

[6] = test system: H460 (NSCLC) tumor xenografts; experiment: Tumor growth delay of H460 xenografts with radiation; format: in vivo, nude mice
Procedure: as §1

[7] = EMD (cilengitide) single dose + RT single dose, Control 41, RT 113, listed as EMD + RT

CC(C)[C@H]1C(=O)N[C@@H](CCCN=C(N)N)C(=O)NCC(=O)N[C@@H](CC(=O)O)C(=O)N[C@H](Cc2ccccc2)C(=O)N1C [Cilengitide, cyclo-(Arg-Gly-Asp-DPhe-NMeVal)]
spontaneous liver metastasis formation ([1]; 75, 150 or 300 mg/kg daily s.c. as Composition according to Example 18, significant for all doses): inhibited spontaneous liver metastasis formation comparable to Taxol
spontaneous lung metastasis formation ([1]; daily s.c. as Composition according to Example 18, significant for 300 mg/kg/day): spontaneous lung metastasis formation comparable to Taxol
DCE-MRI parameter exchange rate constant kep, mean relative value ([2]; day 35 (controls 86%; p>0.05)): 69 % of initial value
DCE-MRI parameter amplitude A, mean relative value ([2]; day 35 post inoculation (controls 106%; p>0.05)): 97 % of initial value
DCE-MRI parameter exchange rate constant kep, mean relative value ([2]; day 45 (controls 63%; p>0.05)): 88 % of initial value
DCE-MRI parameter amplitude A, mean relative value ([2]; day 45 (controls 125%; p<0.05)): 102 % of initial value
DCE-MRI parameter exchange rate constant kep, mean relative value ([2]; day 55 (controls 40%; p<0.05)): 72 % of initial value
DCE-MRI parameter amplitude A, mean relative value ([2]; day 55 (controls 105%; p<0.05)): 93 % of initial value
radiosensitivity enhancement factor [3]: 1.3
in vitro viability [4]: 71.4±2.2%
Days post implant (range) ([5]; Cilengitide + RT, at 4 months): 131 (≥131) days
Tumor volume (mm^3) median (histologic, Alu ISH) ([5]; Cilengitide + RT, at 4 months): 0.10 (0.06-0.14) mm^3
Tumor volume (mm^3) median (histologic, Alu ISH) ([5]; Cilengitide alone, at time of symptoms): 175 (158-208) mm^3
MRI finding of rat brain ([5]; Cilengitide alone, representative animal imaged at 17d): contrast-enhancing tumor is visible
Days post implant (range) ([5]; Cilengitide alone, time of symptoms): 40 (40-41) days
MRI finding of rat brain ([5]; Cilengitide+RT, representative animal imaged at 68 days (T2-MRI)): no tumor is visible
Median Survival [5, 7]: > 154 days
Median Survival in Days [5, 7]: >154 vs 113 Days
enhancement factor of tumor radioresponse (tumor growth delay) ([6]; with single dose of 15 Gy local radiation): 1.7
antitumor activity as a single agent (tumor growth delay) ([6]; without radiation): no antitumor activity
